These results are taken from PMC8939339, “Mechanism of Cooperative Degradation of Gum Arabic Arabinogalactan Protein by Bifidobacterium longum Surface Enzymes” (Applied and Environmental Microbiology, 2022).

The target in the test is T1, BlArafE (Bifidobacterium longum, UniProt A0ACD7UMY4).
T1 construct: gene BLLJ_1850; signal peptide (aa 1-26) and C-terminal TM region (aa 1637-1659) removed; printed insert 88 to 4899 (nucleotides); His-tag (printed both as C- and N-terminal; pET23b); E. coli BL21(DE3); 175 kDa
In words: HPAEC-PAD of reaction products. Format: biochemical. The note with it: 50 mM sodium acetate pH 6.0, 37 °C, 16 h; both alpha1,3- and alpha1,4-Araf cleaved.

T1 sequence (A0ACD7UMY4 30-1633): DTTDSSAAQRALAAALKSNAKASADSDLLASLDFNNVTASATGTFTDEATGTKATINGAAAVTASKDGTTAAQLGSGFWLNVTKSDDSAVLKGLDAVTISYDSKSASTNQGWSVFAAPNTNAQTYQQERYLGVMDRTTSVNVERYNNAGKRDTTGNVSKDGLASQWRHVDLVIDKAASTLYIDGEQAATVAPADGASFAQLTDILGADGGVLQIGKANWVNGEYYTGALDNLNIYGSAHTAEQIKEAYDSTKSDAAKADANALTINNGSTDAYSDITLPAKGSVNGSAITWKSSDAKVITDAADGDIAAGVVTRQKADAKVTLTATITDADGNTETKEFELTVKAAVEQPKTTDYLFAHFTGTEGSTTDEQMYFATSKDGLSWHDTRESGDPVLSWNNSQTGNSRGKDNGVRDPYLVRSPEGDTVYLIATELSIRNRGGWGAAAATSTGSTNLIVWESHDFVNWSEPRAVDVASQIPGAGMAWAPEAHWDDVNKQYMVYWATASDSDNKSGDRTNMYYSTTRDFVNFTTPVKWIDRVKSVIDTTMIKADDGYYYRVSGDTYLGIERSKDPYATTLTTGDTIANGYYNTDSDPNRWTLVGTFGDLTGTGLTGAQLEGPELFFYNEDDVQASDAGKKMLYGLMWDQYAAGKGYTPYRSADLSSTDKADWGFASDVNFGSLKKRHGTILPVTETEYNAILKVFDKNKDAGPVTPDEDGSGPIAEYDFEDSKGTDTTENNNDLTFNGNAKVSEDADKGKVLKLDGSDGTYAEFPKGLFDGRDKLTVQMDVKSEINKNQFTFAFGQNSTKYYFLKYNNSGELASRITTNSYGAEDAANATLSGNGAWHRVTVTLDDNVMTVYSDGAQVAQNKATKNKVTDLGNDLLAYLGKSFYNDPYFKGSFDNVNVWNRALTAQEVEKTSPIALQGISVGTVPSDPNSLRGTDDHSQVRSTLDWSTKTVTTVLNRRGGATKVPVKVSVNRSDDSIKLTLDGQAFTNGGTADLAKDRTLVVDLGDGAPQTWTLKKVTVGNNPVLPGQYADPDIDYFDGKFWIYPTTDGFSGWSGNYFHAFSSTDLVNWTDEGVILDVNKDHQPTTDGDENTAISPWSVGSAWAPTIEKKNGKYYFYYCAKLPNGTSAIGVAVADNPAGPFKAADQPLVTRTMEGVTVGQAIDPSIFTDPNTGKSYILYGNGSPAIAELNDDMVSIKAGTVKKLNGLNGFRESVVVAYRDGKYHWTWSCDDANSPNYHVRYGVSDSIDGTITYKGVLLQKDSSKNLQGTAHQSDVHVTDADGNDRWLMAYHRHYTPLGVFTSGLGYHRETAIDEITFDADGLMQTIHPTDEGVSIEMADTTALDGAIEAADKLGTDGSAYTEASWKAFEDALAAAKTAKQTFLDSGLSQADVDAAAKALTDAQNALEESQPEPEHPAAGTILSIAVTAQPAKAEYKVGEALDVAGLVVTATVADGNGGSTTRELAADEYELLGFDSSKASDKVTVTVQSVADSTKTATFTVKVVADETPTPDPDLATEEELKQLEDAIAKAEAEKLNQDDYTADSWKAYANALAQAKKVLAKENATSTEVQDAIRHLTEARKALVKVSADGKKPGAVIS

In the case of `C[C@@H]1O[C@@H](O[C@H]2[C@H](O)[C@@H](O)[C@H](OC[C@H]3O[C@@H](OC[C@H]4OC(O)[C@H](O)[C@@H](O)[C@H]4O)[C@H](O)[C@@H](OC4O[C@@H](CO)C(O)[C@H]4O)[C@H]3OC3O[C@@H](CO)C(O)[C@H]3O)O[C@@H]2C(=O)O)[C@H](O)[C@H](O)[C@H]1O` (stereo partly shown) [S5-A], the “HPAEC-PAD of reaction products” value was “BlArafE cleaved S5-A into S4 and L-arabinose”.
